Data taken from ChEMBL document CHEMBL1159383, “Tasipeptins A and B: new cytotoxic depsipeptides from the marine cyanobacterium Symploca sp” (J Nat Prod, 2003).

System: KB
Test: Cytotoxicity against human KB cells
Assay type: functional, cell-based

SMILES | IC50
CCCC(=O)N[C@H](C(=O)N[C@@H]1C(=O)N[C@@H](CC(C)C)C(=O)N[C@H]2CC[C@@H](O)N(C2=O)[C@@H](CC(C)C)C(=O)N(C)[C@@H](Cc2ccccc2)C(=O)N[C@@H](C(C)C)C(=O)O[C@@H]1C)C(C)C [TASIPEPTIN A] | 930 nM
CCCC(=O)N[C@@H]1C(=O)N[C@@H](CC(C)C)C(=O)N[C@H]2CC[C@@H](O)N(C2=O)[C@@H](CC(C)C)C(=O)N(C)[C@@H](Cc2ccccc2)C(=O)N[C@@H](C(C)C)C(=O)O[C@@H]1C [TASIPEPTIN B] | 820 nM
